Results reported in PubChem BioAssay AID1259407 (Chemical Carcinogenesis Research Information System (CCRIS), 2018).
The source made the active and inactive calls. How the calls were made is not given here.

Test system: CCRIS mutagenicity, Ames/micronucleus/aberration tests
Experiment: CCRIS mutagenicity studies
[1] = Test System: AMES SALMONELLA TYPHIMURIUM, Strain/Indicator: TA98, Metabolic Activation: NONE, Method: STANDARD PLATE
[2] = Test System: AMES SALMONELLA TYPHIMURIUM, Strain/Indicator: TA100, Metabolic Activation: NONE, Method: STANDARD PLATE
[3] = Test System: AMES SALMONELLA TYPHIMURIUM, Strain/Indicator: TA1535, Metabolic Activation: NONE, Method: STANDARD PLATE
[4] = Test System: AMES SALMONELLA TYPHIMURIUM, Strain/Indicator: TA1537, Metabolic Activation: NONE, Method: STANDARD PLATE

For `COP(=O)(OC)C(OC(=O)CCl)C(Cl)(Cl)Cl` (centres undefined), the mutagenic call [1] was “inactive; negative”, the mutagenic call (Test System: AMES SALMONELLA TYPHIMURIUM, Strain/Indicator: TA98, Metabolic Activation: RAT, LIVER, S-9, AROCLOR, Method: STANDARD PLATE) was “inactive; negative” and the mutagenic call [2] was “inactive; negative”. The mutagenic call (Test System: AMES SALMONELLA TYPHIMURIUM, Strain/Indicator: TA100, Metabolic Activation: RAT, LIVER, S-9, AROCLOR, Method: STANDARD PLATE) was “inactive; negative”, the mutagenic call [3] was “inactive; negative” and the mutagenic call (Test System: AMES SALMONELLA TYPHIMURIUM, Strain/Indicator: TA1535, Metabolic Activation: RAT, LIVER, S-9, AROCLOR, Method: STANDARD PLATE) was “inactive; negative”. The mutagenic call [4] was “inactive; negative” and the mutagenic call (Test System: AMES SALMONELLA TYPHIMURIUM, Strain/Indicator: TA1537, Metabolic Activation: RAT, LIVER, S-9, AROCLOR, Method: STANDARD PLATE) was “inactive; negative”.

With `O=[N+]([O-])c1c(-c2ccc(Cl)cc2)nc2n1CCS2` the mutagenic call [1] was “inactive; negative”, the mutagenic call [2] was “active; positive” and the mutagenic call [3] was “inactive; negative”. The mutagenic call [4] was “active; positive” and the mutagenic call (Test System: AMES SALMONELLA TYPHIMURIUM, Strain/Indicator: TA1538, Metabolic Activation: NONE, Method: STANDARD PLATE) was “inactive; negative”.

In the case of `Cc1ccc(NN=NCc2ccc([N+](=O)[O-])cc2)cc1`, the mutagenic call (Test System: AMES SALMONELLA TYPHIMURIUM, Strain/Indicator: TA98, Metabolic Activation: NONE, Method: PREINCUBATION) was “active; positive”, the mutagenic call (Test System: AMES SALMONELLA TYPHIMURIUM, Strain/Indicator: TA98, Metabolic Activation: RAT, LIVER, S-9, PCB, Method: PREINCUBATION) was “active; positive” and the mutagenic call (Test System: AMES SALMONELLA TYPHIMURIUM, Strain/Indicator: TA100, Metabolic Activation: NONE, Method: PREINCUBATION) was “active; positive”. For the same compound, the mutagenic call (Test System: AMES SALMONELLA TYPHIMURIUM, Strain/Indicator: TA100, Metabolic Activation: RAT, LIVER, S-9, PCB, Method: PREINCUBATION) was “active; positive”.

For `Cc1nc(-c2ccc([N+](=O)[O-])o2)cs1`, the mutagenic call (Test System: AMES SALMONELLA TYPHIMURIUM, Strain/Indicator: TA100, Metabolic Activation: RAT, LIVER, S-9, KC500 OR PHENOBARBITAL, Method: LIQUID SUSPENSION) was “active; positive”.

With `CC(=O)O/C=C/Cc1ccc2c(c1)OCO2` the mutagenic call (Test System: UDS HUMAN FIBROBLASTS, Strain/Indicator: THY INCORP (NON-S-PHASE), Metabolic Activation: NONE, Method: AUTORADIOGRAPHY) was “active; positive”.
